A short description of this data set: Stability in CDC13 in the NMR tube at room temperature. Particulars: decomposed in one day. Format: physicochemical.

With `COc1ccc2c(c1)c(CCNC(C)=O)cn2C(CC(C)C)OOC(C)(C)CC(OC(C)=O)OC(C)=O` (stereo not shown) [Compound 7], the “stability in CDC13” value is reported as “not be stable”.

For the origin of these results see patent US10689341B2, “Small molecule N-(alpha-peroxy) indole compounds and methods of use” (King Abdullah University of Science and Technology, priority 2016, dated 2020).
